Experimental data: PubChem BioAssay AID179 (DTP/NCI, 2004)
Active and inactive are the calls of the source.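 How the source made its calls: active means compounds giving half or more protection of infected cells from virus-caused growth loss, again on retest; inactive means the rest.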 Where a SMILES comes first, the peptide text is derived from it. [ ]: non-standard residue; d: D form. The star is where a group is joined. NMeAc5c = CNC1(C(=O)O)CCCC1; Cbz = O=C(OCc1ccccc1)*; Boc = CC(C)(C)OC(=O)*; OBn = c1ccc(CO*)cc1; tBu = CC(C)(C)*

System: CEM cells HIV-1 protection, formazan growth assay
Experiment: NCI AIDS Antiviral Assay
Conditions: for IC50: measured here: growth of uninfected CEM cells
Outline: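 Protection of CEM cells against HIV-1 was scored from cell growth (soluble formazan) across five concentrations, with parallel uninfected cells. Lack of protection may reflect toxicity.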

SMILES | outcome | EC50 | IC50
C=C1C(=O)OC2C1CC[C@H](C)C13OC(=O)CC1[C@@]23C (stereo partly specified) | inactive | – | –
O=[N+]([O-])/C(C(Cl)=C(Cl)Cl)=C1/OCCS1 | – | > 200 µM | 107 µM
CCCCCC#CCOC(=O)C(=[N+]=[N-])P(=O)(c1ccccc1)c1ccccc1 | – | > 200 µM | 95.5 µM
Cn1nc2ccc3nccc(NCCNCCCl)c3c2n1 | – | > 1.17 µM | > 1.17 µM
CCN(CC)c1ccc2cc(-c3csc(C)n3)c(=O)oc2c1 | – | > 200 µM | 10.2 µM
CN(C)c1ccc(/C=C2/NC(=S)NC2=O)cc1 | – | > 200 µM | 20 µM
CC(=O)C1(N=Nc2ccc(S(=O)(=O)Nc3nccc(C)n3)cc2)CCOC1=O (stereo unspecified) | – | > 200 µM | > 200 µM
CC1(C)CC(=O)C2(CC(CSc3ccccc3)C(CS(=O)(=O)c3ccccc3)C2)C(=O)C1 (stereo unspecified) | – | > 200 µM | > 200 µM
COC1(OC)N=C(N)C2(C#N)C(c3ccccc3)NC3=C(CCC3)C12C#N (stereo unspecified) | – | > 200 µM | > 200 µM
CCOC(=O)C1=C(OC(OCC)C(CC)[Se]c2ccccc2)CCCC1 (stereo unspecified) | – | > 23.4 µM | > 23.4 µM
O=C(O)c1ccccc1NS(=O)(=O)c1ccc(Cl)cc1 | inactive | – | –
COc1ccc(OC)c(/C=C/c2ccccc2)c1 | – | 0.0631 µM | 110 µM
CCCCN(CCCC)CCCCCCCN1CCCc2cc(OC)ccc21 | – | > 200 µM | 17.8 µM
O=C(Nc1ccccc1)Nc1ccccn1 | – | 166 µM | > 200 µM
c1ccc(C2=NCCc3cc4c(cc32)OCO4)cc1 | – | > 200 µM | 141 µM
Nc1ncnc2c1ncc(=O)n2C1CC(O)C(CO)O1 (stereo unspecified) | – | > 200 µM | > 200 µM
CCC[CH2][Sn]([CH2]CCC)([O]C(=O)c1cc(OC)c(OC)cc1OC)[O][Sn]([CH2]CCC)([CH2]CCC)[O]C(=O)c1cc(OC)c(OC)cc1OC | – | > 11 µM | 0.302 µM
CC(=O)Nc1ccc(/C=C(\C#N)c2ccccc2)cc1 | – | > 200 µM | > 200 µM
CC(=O)N1c2ccccc2C(C)C1c1[nH]c2ccccc2c1C (stereo unspecified) | – | > 200 µM | 30.2 µM
Cc1ccc(S(=O)(=O)OCCC2CN(C(=O)OCc3ccccc3)C(C)(C)O2)cc1 (stereo unspecified) | – | > 200 µM | 14.1 µM
O=C(NCCCCCCNC(=O)NC1OCC(O)C(O)C1O)NC1OCC(O)C(O)C1O (stereo unspecified) | inactive | – | –
COc1ccccc1CC1(O)OC(=O)c2ccccc21 (stereo unspecified) | – | > 200 µM | > 200 µM

SMILES | outcome | EC50 | IC50
CN=CN(C)c1c2ccccc2nc2ccccc12 | – | > 200 µM | > 200 µM
O=C(O)c1ccccc1C(=O)OCC1CCCN2CCCCC12 (stereo unspecified) | – | > 151 µM | > 151 µM
CC(OC(C)(C)C)C(NC(=O)C(CCCCNC(=O)OC(C)(C)C)NC(=O)C(Cc1c[nH]c2ccccc12)NC(=O)OCc1ccccc1)C(=O)NC(Cc1ccccc1)C(=O)N(C)C1(C(=O)NC(Cc2ccccc2)C(=O)OCc2ccccc2)CCCC1 (stereo unspecified) (Cbz-WK(Boc)T(tBu)F[NMeAc5c]F-OBn; configuration not given here) | – | > 50.1 µM | 38.9 µM
Cc1cc(N(CCC#N)CCC#N)ccc1/C=C1N=C(/C=C\c2ccccc2)N(c2ccc(C(=O)O)cc2)C\1=O | – | > 13.5 µM | > 13.5 µM
CC(C)C1=C(O)C2=C(C(=O)C1=O)C1(C)CCCC(C)(C)C1C(O)C2OC=O (stereo unspecified) | – | > 200 µM | 10.2 µM
NCCCCNc1ccc2c(=O)[nH][nH]c(=O)c2c1 | inactive | – | –
CC(C)N1CCN(C(C)C)CCN(C(C)C)CC1.[O]=[Mo](=[O])=[O] | – | > 100 µM | 75.9 µM
O=[N+]([O-])c1ccc(/C=[N+](\[O-])CCO)o1 | – | > 200 µM | 30.9 µM
FC(F)(F)C[P+](c1ccccc1)(c1ccccc1)c1ccccc1 | – | > 200 µM | 46.8 µM
C(=C/c1nnnn1-c1ccccc1)/Nc1ccccc1 | – | > 200 µM | 26.3 µM
CC1CN(S(=O)(=O)c2cccc3cnccc23)CCN1 (stereo unspecified) | – | > 126 µM | 38 µM
CCN(CC)CCCC(C)Nc1c2cc(OC)cc(C)c2nc2c(C)c(Cl)ccc12 (stereo unspecified) | inactive | – | –
CC(=O)C(C(C)=O)=C1CCCC(O)O1 (stereo unspecified) | – | > 200 µM | 174 µM
CCN(CC)CCCNC(=O)c1ccccc1Nc1c(Cl)cccc1Cl | – | > 200 µM | 6.76 µM
NC(=O)c1[nH]nc(C2OC(CO)C(O)C2O)c1O (stereo unspecified) | – | > 955 µM | 0.309 µM
CCSc1ccc(/C=C(\C#N)c2ccc(OCCN(CC)CC)cc2)cc1 | – | > 100 µM | 1.2 µM
O=C(N=Nc1cc(Cl)ccc1Cl)NNc1cc(Cl)ccc1Cl | – | > 200 µM | 11.2 µM
COC(=O)C1CC2c3ccccc3C1c1ccccc12 (stereo unspecified) | – | > 200 µM | > 200 µM
COc1ccc(/C=C(\Cl)c2ccc(OC)c(OC)c2)cc1OC | – | 56.2 µM | > 200 µM
O=C1c2ccccc2N2Oc3ccccc3C12c1ccccc1 (stereo unspecified) | – | > 45.7 µM | > 45.7 µM
Cc1nc(Nc2ccc([N+](=O)[O-])cc2)sc1C(/C=C/c1ccc(N(C)C)cc1)=N/NC(=O)c1ccccc1 | – | > 13.8 µM | > 13.8 µM
COc1ccc2c(c1)-c1nc(=O)n(CCCN(C)C)c3ccc([N+](=O)[O-])c(c13)N2 | – | > 1 µM | 0.355 µM

SMILES | outcome | EC50 | IC50
CC(C)c1nc2c(c(=O)o1)CCS2 | – | > 182 µM | > 182 µM
Cc1cn(C2C[C@H]3ONC[C@H]3O2)c(=O)[nH]c1=O (stereo partly specified) | – | > 200 µM | > 200 µM
O=[N+]([O-])C(C=Nc1ccccc1)C=Nc1ccccc1 (stereo unspecified) | – | > 200 µM | 107 µM
C=CC[C@]12C[C@@H](C(=O)OC)N(C(=O)OC)[C@H]1N(S(=O)(=O)c1ccccc1)c1ccccc12 | – | > 200 µM | 74.1 µM
CO[C@@]12[C@@H]3N[C@@H]3CN1C1=C(C(=O)C(N3CCCC3)=C(C)C1=O)[C@@H]2COC(N)=O | – | > 200 µM | 0.631 µM
CN=S(=O)(c1ccccc1)C1(C)CC(C)=C(C)CS1=O (stereo unspecified) | – | > 200 µM | 132 µM
O=C1NC(=S)SC1N=Nc1ccc(S(=O)(=O)Nc2ncccn2)cc1 (stereo unspecified) | – | > 200 µM | > 200 µM
CC(C)CC(NC(=O)C(CC(=O)O)NC(=O)C(CO)NC(=O)C(CCCCN)NC(=O)C1CCCN1C(=O)C(CC(C)C)NC(=O)C(CO)NC(=O)CNC(=O)C(N)CCC(=O)O)C(=O)NC(CCCN=C(N)N)C(=O)O (stereo unspecified) (H-EGSLPKSDLR-OH; configuration not given here) | – | > 56.2 µM | > 56.2 µM
Cc1cc(C)c2ccc(N3CCNCC3)nc2n1 | – | > 174 µM | 70.8 µM
N#CC1C(=O)N(c2ccccc2)NC12OC(=O)c1ccncc12 (stereo unspecified) | – | > 200 µM | > 200 µM
O=C1/C(=C/c2ccc(OC(=O)c3ccc(Cl)cc3)cc2)CCC/C1=C\c1ccc(OC(=O)c2ccc(Cl)cc2)cc1 | – | > 100 µM | > 100 µM
O=[N+]([O-])c1cc([N+](=O)[O-])c(/C=C/c2ccc(Cl)c(Cl)c2)cc1/C=C/c1ccc(Cl)c(Cl)c1 | – | > 19.5 µM | > 19.5 µM
CCOP(=O)(C/C=C/CN(C(=O)OC(C)(C)C)C(=O)OC(C)(C)C)OCC | inactive | – | –
CNC(=O)O/N=C/c1cccc(/C=N/OC(=O)NC)c1 | – | > 200 µM | > 200 µM
NC(=O)N1c2ccccc2C=Cc2ccccc21 | – | > 200 µM | > 200 µM
CCCCNC(=O)OCC(C)(CCC)COC(N)=O (stereo unspecified) | – | > 200 µM | 148 µM
O=c1n(-c2ccccc2)c(=O)n2n1C1C3C4C5C3C2C5(F)C41 (stereo unspecified) | – | > 200 µM | > 200 µM
COC(=O)[C@H]1[C@@H](C(C)C)O[C@@H](C(C)C)O[C@H]1C(F)(F)F | – | > 200 µM | > 200 µM
C=CCCCC(C)(C(=O)OC(C)(C)C)C1=NOC(C)(C)C1 (stereo unspecified) | – | > 200 µM | > 200 µM
CCOP(=O)(OCC)c1ccc(=O)[nH]c1-c1cccs1 | – | > 200 µM | > 200 µM
Cc1cc(S(=O)(=O)Nc2n[nH]c(-c3ccc(Cl)cn3)n2)c(S)cc1Cl | – | > 148 µM | 123 µM
O=C(Oc1ccc(OC(=O)c2ccccc2)c(C(=O)c2ccccc2)c1C(=O)c1ccccc1)c1ccccc1 | – | > 200 µM | > 200 µM

SMILES | outcome | EC50 | IC50
CCNc1nnc(-c2nsc3ccccc23)s1 | – | > 20 µM | > 20 µM
O=c1c2ccccc2ncn1O | – | > 200 µM | > 200 µM
COc1ccc(NS(=O)c2ccc(OC)cc2)cc1 (stereo unspecified) | – | > 200 µM | 15.8 µM
COc1cc2[nH]ncc(=S)c2cc1OC | – | 61.7 µM | 219 µM
Cc1ccccc1NC(=O)c1cc(-c2ccc([N+](=O)[O-])cc2)nc(=S)[nH]1 | – | > 490 µM | > 490 µM
COc1cc(CC(=O)c2ccc3c(c2)OCO3)cc(OC)c1OC | – | > 204 µM | > 204 µM
COc1nc(N)c(N=O)c(=O)n1C | inactive | – | –
CC[C@@]1(O)C(=O)OCc2c1cc1n(c2=O)Cc2cc3cc(O)ccc3nc2-1 | – | > 37.2 µM | 0.00832 µM
C#CCN(C)Cc1ccccc1 | – | > 200 µM | > 200 µM
Cc1[nH]n(-c2nc(-c3ccccc3)cc(=O)[nH]2)c(=O)c1CCO | – | > 200 µM | > 200 µM
CC(=O)/C=C1/C(=O)C(CC(C)C)=C1CC(C)C | – | 141 µM | > 200 µM
O=S(=O)(OI(OI(OS(=O)(=O)C(F)(F)F)c1ccccc1)c1ccccc1)C(F)(F)F | – | > 347 µM | 6.92 µM
CCCc1[nH]c(SCCCCCCCCSc2nc(-c3ccc(F)cc3)c(CCC)[nH]2)nc1-c1ccc(F)cc1 | – | > 9.33 µM | > 9.33 µM
O=C(c1ccccc1)C1C(c2ccccc2)S(=O)C(c2ccccc2)CC1(O)c1ccccc1 (stereo unspecified) | – | > 66.1 µM | 13.5 µM
N#CCC(=O)N/N=C1/C(=O)NC(=O)C(=O)C1c1nc2ccccc2s1 (stereo unspecified) | inactive | – | –
CCOC(=O)C(NO)C(Sc1ccccc1)c1ccc(OC)cc1 (stereo unspecified) | inactive | – | –
COC(=O)N1CCC(Sc2ccccc2)C2(CCSc3ccccc3)CCC=C12 (stereo unspecified) | – | > 12.3 µM | > 12.3 µM
Cc1nc(N)nc(N)c1N1CCN(c2ccc(N)cc2)CC1 | – | > 200 µM | 2.82 µM
Cn1cc(NC(=O)Nc2cc(C(=O)Nc3cc(C(=O)Nc4ccc(S(=O)(=O)O)c5cc(S(=O)(=O)O)ccc45)n(C)c3)n(C)c2)cc1C(=O)Nc1cc(C(=O)Nc2ccc(S(=O)(=O)O)c3cc(S(=O)(=O)O)ccc23)n(C)c1 | – | 12.3 µM | 61.7 µM
